Assays:
human fecal samples = test: 24 h batch fermentation with human fecal samples: production of SCFA; assay type: cell-based; details: 1% of each substance, 37° C., pH 6.9, anaerobic
Protocol: The test was based on a 24 h fermentation experiment performed with human fecal samples. Fecal samples were incubated in 24-hour batch cultures at 37° C. at pH 6.9 under anaerobic conditions containing a buffer medium (mineral salt, trace elements, vitamines). The medium was supplemented with 10% extract of caecal digesta from pig. Polydextrose, polyols and their combinations were added at the level of 1% each into the test cultures.

biogenic amines = biogenic amines from caecal digesta of rats (HPLC, dansyl derivatives); assay type: in vivo, Wistar rats; details: rat caecal digesta, Example 3
Protocol: Four week old male Wistar rats, divided into a control group and three test groups, consisting of 12 rats in each group, were held at a controlled temperature (27+2° C.) and 12:12 hrs light cycle. The animals had free access to food and water. The animals were weighed once a week and their weight gain was calculated. The control group was fed four weeks with a control (basal) diet and the test group was fed four weeks with the PDX-Polyol-diet, which consisted the control (basal) diet supplemented by an immunostimulating amount of polydextrose, and polyol as described in more detail below.
The control diet was the same diet as defined in Example 1. and the PDX-Polyol-diet was the same as defined in Example 2.
The digesta samples from caecum and colon were divided into pools (3 animals per pool) for the analysis of biogenic amines. The samples were stored in −20° C. until analysed. PH was measured from the caecum in situ.
Biogenic amines were determined from caecal digesta samples. […] The derivatives were separated on a C18 reversed phase column using mixture of ammonium acetate and acetonitrile as eluent, and detected with fluorescence detector.
(§1) The in vivo test of Example 2 and the in vitro fermentation of Example 3 were repeated and the level of tyramine was measured.

[1] = laxative effect in the test animals; parameters: species or system Wistar rats; details: in vivo
Protocol: Four week old male Wistar rats, divided into a control group and three test groups, consisting of 12 rats in each group, were held at a controlled temperature (27±2° C.) and 12:12 hrs light cycle. The animals had free access to food and water. The animals were weighed once a week and their weight gain was calculated. The control group was fed four weeks with a control (basal) diet and the test group was fed four weeks with the PDX-Polyol-diet, which consisted the control (basal) diet supplemented by an immunostimulating amount of polydextrose, and polyol as described in more detail below.
as §1

Molecule | 2-metbutyric acid, production of SCFA (%) after 24 h fermentation (human fecal samples) [%] | Acetic acid, production of SCFA (%) after 24 h fermentation (human fecal samples) [%] | Isobutyric acid, production of SCFA (%) after 24 h fermentation (human fecal samples) [%] | Isovaleric acid, production of SCFA (%) after 24 h fermentation (human fecal samples) [%] | Propionic acid, production of SCFA (%) after 24 h fermentation (human fecal samples) [%] | Total SCFA after 24 h fermentation (human fecal samples) [mmol/L] | Valeric acid, production of SCFA (%) after 24 h fermentation (human fecal samples) [%] | Butyric acid, production of SCFA (%) after 24 h fermentation (human fecal samples) [%] | amount of tyramine compared to a control diet (biogenic amines) | laxative effect [1]
isomalt | 0.2 | 64.0 | 0.4 | 0.2 | 12.8 | 158.6 | 1.2 |  |  | 
OC[C@@H](O)[C@H](O)[C@@H](O)CO [Xylitol, xylitol] | 0.3 | 45.8 | 0.6 | 0.3 | 12.6 | 191.6 | 1.9 | 27.9 |  | 
OC[C@@H](O)[C@@H](O[C@@H]1O[C@H](CO)[C@H](O)[C@H](O)[C@H]1O)[C@H](O)[C@@H](O)CO [Lactitol, lactitol] | 0.2 | 66.2 | 0.4 | 0.2 | 9.3 | 153.6 | 0.9 | 31.1 | reduced | laxative effect
OC[C@@H](O)[C@@H](O[C@H]1O[C@H](CO)[C@@H](O)[C@H](O)[C@H]1O)[C@H](O)[C@@H](O)CO [Maltitol, maltitol] | 0.2 | 57.9 | 0.4 | 0.2 | 12.1 | 157.0 | 1.2 | 21.3 |  | 
OC[C@@H](O)[C@@H](O)[C@H](O)[C@@H](O)CO [Sorbitol, sorbitol] | 0.2 | 55.2 | 0.5 | 0.3 | 11.4 | 122.4 | 1.4 | 38.6 |  | 

From patent US20030157146A1, “Stimulation of the immune system with polydextrose” (priority 2002, published 2003)
